In PMC8348589, “Scarlet Flax Linum grandiflorum (L.) In Vitro Cultures as a New Source of Antioxidant and Anti-Inflammatory Lignans” (Molecules, 2021):
“And” between values parts separate entries of the source, which are not always exact repeats. Identical values can stand only once. Like-named read-outs stand apart in the source and are kept apart here. One block for each molecule: values may come before it.

Experiments:
COX-1 = target: T1, COX-1 (Ovis aries, UniProt P05979); test: COX-1 inhibition assay (Cayman Chem kit)
T1 sequence (P05979 25-600): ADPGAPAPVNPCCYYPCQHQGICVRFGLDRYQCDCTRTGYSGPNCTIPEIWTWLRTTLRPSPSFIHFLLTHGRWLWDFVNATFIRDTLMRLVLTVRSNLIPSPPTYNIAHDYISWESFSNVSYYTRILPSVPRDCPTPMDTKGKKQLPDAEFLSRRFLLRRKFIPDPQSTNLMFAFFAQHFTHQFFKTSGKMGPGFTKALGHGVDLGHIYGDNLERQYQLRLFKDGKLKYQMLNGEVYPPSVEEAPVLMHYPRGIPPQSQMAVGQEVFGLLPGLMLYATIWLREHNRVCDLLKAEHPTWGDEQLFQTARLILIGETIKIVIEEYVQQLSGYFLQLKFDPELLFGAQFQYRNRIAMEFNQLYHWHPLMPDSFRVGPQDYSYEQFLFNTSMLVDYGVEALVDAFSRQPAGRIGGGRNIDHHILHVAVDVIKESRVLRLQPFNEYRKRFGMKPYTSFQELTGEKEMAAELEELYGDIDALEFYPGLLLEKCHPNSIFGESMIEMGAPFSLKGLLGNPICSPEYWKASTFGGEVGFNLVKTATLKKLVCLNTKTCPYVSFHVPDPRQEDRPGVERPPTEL
Procedure: (§2) COX-1 (Ovine) and COX-2 (Human) inhibition assays were performed using the corresponding Cayman Chem kits. The assays were performed according to the manufacturer’s instructions. Arachidonic acid (1.1 mM) was used as substrate. Reaction was followed at 590 nm in a BioTek Instrument Synergy II microplate reader.

COX-2 = target: T2, COX-2 (Homo sapiens, UniProt P35354); test: COX-2 inhibition assay (Cayman Chem kit)
T2 sequence (P35354 18-604): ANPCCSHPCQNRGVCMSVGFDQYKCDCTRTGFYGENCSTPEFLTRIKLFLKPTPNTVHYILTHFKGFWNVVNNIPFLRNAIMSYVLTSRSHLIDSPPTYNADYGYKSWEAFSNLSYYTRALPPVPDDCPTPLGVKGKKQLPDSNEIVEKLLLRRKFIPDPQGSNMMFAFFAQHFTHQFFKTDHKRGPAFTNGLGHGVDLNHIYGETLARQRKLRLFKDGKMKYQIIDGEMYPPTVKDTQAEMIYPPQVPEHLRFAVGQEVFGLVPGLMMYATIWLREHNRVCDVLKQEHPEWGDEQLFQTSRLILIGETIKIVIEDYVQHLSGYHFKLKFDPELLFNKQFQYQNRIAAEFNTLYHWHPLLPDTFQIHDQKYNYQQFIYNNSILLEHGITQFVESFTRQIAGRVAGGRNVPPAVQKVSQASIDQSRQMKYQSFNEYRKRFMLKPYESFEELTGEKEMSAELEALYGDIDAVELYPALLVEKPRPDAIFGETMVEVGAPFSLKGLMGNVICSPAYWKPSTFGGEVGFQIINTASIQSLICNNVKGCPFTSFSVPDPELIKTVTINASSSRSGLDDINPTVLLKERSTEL
Procedure: as §2

[1] = system: L. grandiflorum hypocotyl and cotyledon explants; test: Callus induction frequency on MS medium with PGRs; type: cell-based, Linum grandiflorum; conditions: 1.0 mg/L NAA
Procedure: (§1) Both the cotyledon (0.5 cm) and hypocotyl (1.0 cm) explants of L. grandiflorum of 5-day old seedlings, grown in vitro, were employed as the source of the explants and inoculated on three different experimental media containing sucrose (30g/L), agar (8 g/L) along with various concentrations of α-naphthaleneacetic acid (NAA: 0.1, 1.0, 2.5, 5.0, 10 mg/L), thidiazuron (TDZ: 0.1, 1.0, 2.5, 5.0, 10 mg/L) and a combination of both (TDZ: 0.1, 1.0, 2.5, 5.0, 10 mg/L and NAA: 0.1 mg/L constant) and placed in a growth room at 25 ± 2 °C temperature, using light intensity of 40 μmol/m^2/s at around a 16/8 h (light/dark) photoperiod. Four explants were inoculated for each condition. All experiments were conducted twice for each treatment. Media without PGRs addition were used as controls. The cultures were harvested at day 30 after inoculation. Biomass determination (fresh weights (FW) and dried weight (DW)) were determined for each condition. For dry weight (DW) estimation, cells were frozen and lyophilized 48 h.

[2] = system: L. grandiflorum callus cultures; test: Biomass accumulation of callus cultures; type: cell-based, Linum grandiflorum; conditions: harvested day 30
Procedure: as §1

[3] = read-out: COX-1 IC50 (in µM), purified (neo)lignans
[4] = read-out: COX-2 IC50 (in µM), purified (neo)lignans

- IC50 (COX-1; [3]): 51.3 ± 0.3 µM
- IC50 (COX-2; [4]): 19.2 ± 2.5 µM
SMILES: COc1cc(C2Oc3c(OC)cc(/C=C/CO)cc3C2CO)ccc1O (stereo not shown) [DCA, dehydrodiconiferyl alcohol]

- IC50 (COX-1): 24.2 ± 6.9 µM
- IC50 (COX-2): 34.6 ± 2.9 µM
SMILES: COc1cc(C[C@H]2CO[C@H](c3ccc(O)c(OC)c3)[C@H]2CO)ccc1O [LARI, lariciresinol]

SMILES: O=C(O)Cc1cccc2ccccc12 [NAA, α-naphthalene acetic acid]
- callus induction frequency ([1]; cotyledon explants): 87%
- callus induction frequency ([1]; hypocotyl explants): 95% and 95.2%
- biomass accumulation (DW) ([2]; cotyledon-derived callus, 1.0 mg/L NAA): 11.4 g/L
- biomass accumulation (DW) ([2]; hypocotyl-derived callus): 13 g/L

- IC50 (COX-1; [3]): 21.7 ± 1.9 µM
- IC50 (COX-2; [4]): 32.7 ± 0.8 µM
SMILES: COc1cc(C[C@@H](CO)[C@H](CO)Cc2ccc(O)c(OC)c2)ccc1O [SECO, secoisolariciresinol]
